Legend:
[1] = molecular target: T1, Recombinant EGFR (Homo sapiens, UniProt P00533); assay: EGFR binding affinity (LanthaScreen TR-FRET); conditions: Kinase Tracer 199, 5 h incubation
T1 construct: purchased Invitrogen
Procedure, shortened: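 Compounds were titrated against recombinant EGFR and binding was followed by LanthaScreen time-resolved FRET.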

[2] = molecular target: T2, Recombinant BTK^C481S kinase (Homo sapiens, UniProt Q06187, C481S); assay: BTK C481S binding affinity (LanthaScreen TR-FRET); conditions: Kinase Tracer 236, 5 h incubation
T2 construct: purchased SignalChem
T2 sequence (Q06187 whole entry C481S): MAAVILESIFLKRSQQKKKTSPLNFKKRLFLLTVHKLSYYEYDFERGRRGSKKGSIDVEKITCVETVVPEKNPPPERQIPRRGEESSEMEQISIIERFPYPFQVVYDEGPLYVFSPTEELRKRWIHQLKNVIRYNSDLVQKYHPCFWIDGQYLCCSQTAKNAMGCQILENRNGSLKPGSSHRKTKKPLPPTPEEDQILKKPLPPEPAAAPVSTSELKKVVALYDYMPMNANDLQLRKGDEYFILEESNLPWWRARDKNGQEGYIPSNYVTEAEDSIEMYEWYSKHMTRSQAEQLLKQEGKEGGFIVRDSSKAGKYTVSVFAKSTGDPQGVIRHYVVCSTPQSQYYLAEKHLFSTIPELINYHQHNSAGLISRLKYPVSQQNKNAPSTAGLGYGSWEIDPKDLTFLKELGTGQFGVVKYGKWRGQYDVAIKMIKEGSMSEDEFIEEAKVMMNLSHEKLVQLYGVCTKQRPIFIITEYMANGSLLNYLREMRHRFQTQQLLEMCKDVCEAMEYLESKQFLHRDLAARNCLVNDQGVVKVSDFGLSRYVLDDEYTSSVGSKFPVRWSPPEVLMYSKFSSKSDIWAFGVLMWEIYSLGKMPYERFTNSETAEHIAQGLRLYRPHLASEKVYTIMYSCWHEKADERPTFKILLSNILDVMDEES
Procedure, shortened: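 BTK C481S tracer-displacement TR-FRET: 5 nM His-tagged kinase, 2 nM Eu anti-His antibody and 30 nM Kinase Tracer 236 incubated with titrated inhibitor for 5 h in Kinase Buffer A. Read at 340 nm excitation, 615/665 nm emission; IC50 from variable-slope log[inhibitor]–response fit.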

[3] = molecular target: T3, Recombinant BTK^WT kinase (Homo sapiens, UniProt Q06187); assay: BTK WT binding affinity (LanthaScreen TR-FRET); conditions: Kinase Tracer 236, 5 h incubation
T3 construct: purchased Invitrogen
T3 sequence (Q06187 whole entry): as the sequence (Q06187 whole entry C481S) above, with S481C counted along it
Procedure, shortened: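 IC50 obtained by variable-slope fit of TR-FRET signal (ex 340 nm; em 615 and 665 nm) versus inhibitor concentration. Reaction held for 5 h in LanthaScreen Kinase Buffer A with 2.5 nM His-tagged BTK^WT, 15 nM Kinase Tracer 236 and 2 nM Eu anti-His antibody.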

[4] = test system: OCI-Ly10 human DLBCL cells; assay: OCI-Ly10 anti-proliferative activity (Resazurin); type: cell-based; conditions: Homo sapiens, OCI-Ly10, 72 h, OCI-Ly10 cells, 72 h compound treatment, Resazurin; read-out: Proliferation Assay OCI-Ly10-20% FBS
Procedure, shortened: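 A separate untreated plate gave the Day 0 reading, measured by Resazurin fluorescence at 590 nm after 5 h. The average Day 0 value was subtracted from each treated well, and results were expressed as percent of DMSO control. IC50 values came from a log[Inhibitor] vs response Variable Slope fit in Graphpad prism.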

T1 sequence (P00533 25-1210): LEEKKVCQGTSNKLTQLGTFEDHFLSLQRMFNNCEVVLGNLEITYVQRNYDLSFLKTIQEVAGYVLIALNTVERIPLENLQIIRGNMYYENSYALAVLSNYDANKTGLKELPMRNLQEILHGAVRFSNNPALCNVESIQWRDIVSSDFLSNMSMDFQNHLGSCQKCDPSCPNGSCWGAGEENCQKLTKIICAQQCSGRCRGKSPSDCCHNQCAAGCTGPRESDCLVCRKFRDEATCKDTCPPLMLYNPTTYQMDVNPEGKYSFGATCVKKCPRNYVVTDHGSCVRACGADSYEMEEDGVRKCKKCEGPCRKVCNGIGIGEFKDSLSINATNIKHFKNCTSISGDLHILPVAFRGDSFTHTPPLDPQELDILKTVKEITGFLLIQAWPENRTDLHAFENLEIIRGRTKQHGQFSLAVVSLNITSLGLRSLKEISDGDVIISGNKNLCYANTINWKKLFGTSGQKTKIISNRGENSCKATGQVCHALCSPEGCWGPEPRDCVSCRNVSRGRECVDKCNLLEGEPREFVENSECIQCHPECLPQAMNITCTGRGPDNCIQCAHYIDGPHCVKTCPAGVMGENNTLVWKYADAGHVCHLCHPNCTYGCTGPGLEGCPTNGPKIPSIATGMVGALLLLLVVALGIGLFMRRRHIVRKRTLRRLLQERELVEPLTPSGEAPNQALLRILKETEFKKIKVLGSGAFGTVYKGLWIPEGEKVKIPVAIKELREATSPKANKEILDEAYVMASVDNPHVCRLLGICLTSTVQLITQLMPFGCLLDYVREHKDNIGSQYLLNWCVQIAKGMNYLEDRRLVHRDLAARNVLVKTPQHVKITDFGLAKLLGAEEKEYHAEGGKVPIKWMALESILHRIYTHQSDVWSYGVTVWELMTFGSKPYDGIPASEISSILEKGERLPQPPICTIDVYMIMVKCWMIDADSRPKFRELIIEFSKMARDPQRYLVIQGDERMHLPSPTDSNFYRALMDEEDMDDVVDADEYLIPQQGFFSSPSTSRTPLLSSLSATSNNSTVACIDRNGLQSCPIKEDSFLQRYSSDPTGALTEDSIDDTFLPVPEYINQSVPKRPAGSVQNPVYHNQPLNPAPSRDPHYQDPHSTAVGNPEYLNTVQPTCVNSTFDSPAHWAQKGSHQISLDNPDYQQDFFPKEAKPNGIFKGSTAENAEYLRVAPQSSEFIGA

SMILES | IC50 [1] | IC50 [2] | IC50 [3] | IC50 [4]
COc1ccccc1C(=O)NCc1ccc(-c2nn([C@H]3CC[C@H](Cl)C3)c(N)c2C(N)=O)cc1 (relative stereo) [Example 37, 5-amino-1-[(1S*,3S*)-3-chlorocyclopentyl]-3-[4-[[(2-methoxybenzoyl)amino]methyl]phenyl]pyrazole-4-carboxamide] | 100 to 1000 nM | < 10 nM | < 10 nM | 10 to 100 nM
CNc1c(C(N)=O)c(-c2ccc(CNC(=O)c3ccccc3OC)cc2)nn1C1CCC1 [Example 87, 1-cyclobutyl-3-[4-[[(2-methoxybenzoyl)amino]methyl]phenyl]-5-(methylamino)pyrazole-4-carboxamide] | 100 to 1000 nM | < 10 nM | < 10 nM | 100 to 1000 nM
COc1ccc(F)cc1C(=O)NCc1ccc(-c2nn(C3CCCOC3)c(N)c2C(N)=O)cc1F (stereo not drawn) [Example 127, 5-amino-3-[3-fluoro-4-[[(5-fluoro-2-methoxy-benzoyl)amino]methyl]phenyl]-1-tetrahydropyran-3-yl-pyrazole-4-carboxamide] | 1000 to 10000 nM | < 10 nM | < 10 nM | 10 to 100 nM
COc1ccccc1C(=O)NCc1ccc(-c2nn(C3CNCC3(F)F)c(N)c2C(N)=O)cc1F (stereo not drawn) [Example 160, 5-amino-1-(4,4-difluoropyrrolidin-3-yl)-3-[3-fluoro-4-[[(2-methoxybenzoyl)amino]methyl]phenyl]pyrazole-4-carboxamide] | 1000 to 10000 nM | < 10 nM | 10 to 100 nM | 100 to 1000 nM
COc1ccccc1C(=O)NCc1ccc(-c2nn(C3CCOC3)c(N)c2C(N)=O)cc1F (stereo not drawn) [Example 109, 5-amino-3-[3-fluoro-4-[[(2-methoxybenzoyl)amino]methyl]phenyl]-1-tetrahydrofuran-3-yl-pyrazole-4-carboxamide] | 1000 to 10000 nM | < 10 nM | < 10 nM | 100 to 1000 nM
COc1ccc(F)cc1C(=O)NCc1ccc(-c2nn(C3CCOCC3)c(N)c2C(N)=O)c(F)c1 [Example 106, 5-amino-3-[2-fluoro-4-[[(5-fluoro-2-methoxy-benzoyl)amino]methyl]phenyl]-1-tetrahydropyran-4-yl-pyrazole-4-carboxamide] | > 10000 nM | < 10 nM | < 10 nM | 100 to 1000 nM
COc1ccccc1C(=O)NCc1ccc(-c2nn(C3CCOCC3)c(N)c2C(N)=O)c(F)c1 [Example 99, 5-amino-3-[2-fluoro-4-[[(2-methoxybenzoyl)amino]methyl]phenyl]-1-tetrahydropyran-4-yl-pyrazole-4-carboxamide] | > 10000 nM | < 10 nM | 10 to 100 nM | 100 to 1000 nM
COc1ccccc1C(=O)NCc1ccc(-c2nn(CCC#N)c(N)c2C(N)=O)cc1 [Example 11, 5-Amino-1-(2-cyanoethyl)-3-[4-[[(2-methoxybenzoyl)amino]methyl]phenyl]pyrazole-4-carboxamide] | 1000 to 10000 nM | 10 to 100 nM | 10 to 100 nM | 1000 to 10000 nM
CCC(n1nc(-c2ccc(CNC(=O)c3ccccc3OC)cc2)c(C(N)=O)c1N)C(F)(F)F (stereo not drawn) [Example 170, 5-amino-3-[4-[[(2-methoxybenzoyl)amino]methyl]phenyl]-1-[1-(trifluoromethyl)propyl]pyrazole-4-carboxamide] | 1000 to 10000 nM | < 10 nM | 10 to 100 nM | 100 to 1000 nM
COc1ccccc1C(=O)NCc1ccc(-c2nn(C3CCOCC3C)c(N)c2C(N)=O)cc1 (mixture of isomers) [Example 86, 5-amino-3-[4-[[(2-methoxybenzoyl)amino]methyl]phenyl]-1-(3-methyltetrahydropyran-4-yl)pyrazole-4-carboxamide] | 100 to 1000 nM | < 10 nM | < 10 nM | 100 to 1000 nM
COc1ccccc1C(=O)NCc1ccc(-c2nn(C3CCCC3)c(C)c2C(N)=O)cc1 [Example 24, 1-Cyclopentyl-3-[4-[[(2-methoxybenzoyl)amino]methyl]phenyl]-5-methyl-pyrazole-4-carboxamide] | 1000 to 10000 nM | 10 to 100 nM | 10 to 100 nM | 100 to 1000 nM
COc1ccccc1C(=O)NCc1ccc(-c2nn([C@H]3CC[C@H](O)C3)c(N)c2C(N)=O)cc1 (relative stereo) [Example 46, 5-Amino-1-[(1S*,3S*)-3-hydroxycyclopentyl]-3-[4-[[(2-methoxybenzoyl)amino]methyl]phenyl]pyrazole-4-carboxamide] | 100 to 1000 nM | < 10 nM | < 10 nM | 10 to 100 nM
COc1ccccc1C(=O)NCc1ccc(-c2nn(-c3ccccc3)c(N)c2C(N)=O)cc1 [Example 22, 5-Amino-3-[4-[[(2-methoxybenzoyl)amino]methyl]phenyl]-1-phenyl-pyrazole-4-carboxamide] | 1000 to 10000 nM | < 10 nM | < 10 nM | 10 to 100 nM
COc1ccccc1C(=O)NCc1cc(F)c(-c2nn(C3CCCOC3)c(N)c2C(N)=O)cc1F (stereo not drawn) [Example 151, 5-amino-3-[2,5-difluoro-4-[[(2-methoxybenzoyl)amino]methyl]phenyl]-1-tetrahydropyran-3-yl-pyrazole-4-carboxamide] | 1000 to 10000 nM | < 10 nM | < 10 nM | 100 to 1000 nM
COc1ccccc1C(=O)NCc1ccc(-c2nn(C3CN(C)CC3(F)F)c(N)c2C(N)=O)cc1 (stereo not drawn) [Example 167, 5-amino-1-(4,4-difluoro-1-methyl-pyrrolidin-3-yl)-3-[4-[[(2-methoxybenzoyl)amino]methyl]phenyl]pyrazole-4-carboxamide] | 1000 to 10000 nM | < 10 nM | < 10 nM | 10 to 100 nM

Further lines, results first:

IC50 [1] | IC50 [2] | IC50 [3] | IC50 [4] | SMILES
1000 to 10000 nM | < 10 nM | 10 to 100 nM | 100 to 1000 nM | COc1ccccc1C(=O)NCc1ccc(-c2nn(C3CC(C)(C)OC(C)(C)C3)c(N)c2C(N)=O)cc1 [Example 90, 5-amino-3-[4-[[(2-methoxybenzoyl)amino]methyl]phenyl]-1-(2,2,6,6-tetramethyltetrahydropyran-4-yl)pyrazole-4-carboxamide]
1000 to 10000 nM | < 10 nM | < 10 nM | 10 to 100 nM | COc1ccc(F)cc1C(=O)NCc1ccc(-c2nn(C3COCC3(F)F)c(N)c2C(N)=O)cc1 (stereo not drawn) [Example 200, 5-amino-1-(4,4-difluorotetrahydrofuran-3-yl)-3-[4-[[(5-fluoro-2-methoxy-benzoyl)amino]methyl]phenyl]pyrazole-4-carboxamide]
100 to 1000 nM | < 10 nM | < 10 nM | 100 to 1000 nM | COc1ccccc1C(=O)NCc1ccc(-c2nn(C3CCOC(C(F)(F)F)C3)c(N)c2C(N)=O)cc1 (stereo not drawn) [Example 111, 5-amino-3-[4-[[(2-methoxybenzoyl)amino]methyl]phenyl]-1-[2-(trifluoromethyl)tetrahydropyran-4-yl]pyrazole-4-carboxamide]
> 10000 nM | < 10 nM | 10 to 100 nM | 100 to 1000 nM | COc1ccc(F)cc1C(=O)NCc1ccc(-c2nn(CC(F)(F)F)c(N)c2C(N)=O)c(F)c1 [Example 125, 5-amino-3-[2-fluoro-4-[[(5-fluoro-2-methoxy-benzoyl)amino]methyl]phenyl]-1-(2,2,2-trifluoroethyl)pyrazole-4-carboxamide]
1000 to 10000 nM | < 10 nM | 10 to 100 nM | 100 to 1000 nM | COc1ccc(F)cc1C(=O)NCc1ccc(-c2nn(C(CCO)C(F)F)c(N)c2C(N)=O)cc1 (stereo not drawn) [Example 193, 5-Amino-1-[1-(difluoromethyl)-3-hydroxy-propyl]-3-[4-[[(5-fluoro-2-methoxy-benzoyl)amino]methyl]phenyl]pyrazole-4-carboxamide]
100 to 1000 nM | < 10 nM | < 10 nM | 100 to 1000 nM | COc1ccccc1C(=O)NCc1ccc(-c2nn(C3CCCC(O)C3)c(N)c2C(N)=O)cc1 (stereo not drawn) [Example 48, 5-amino-1-(3-hydroxycyclohexyl)-3-[4-[[(2-methoxybenzoyl)amino]methyl]phenyl]pyrazole-4-carboxamide]
1000 to 10000 nM | < 10 nM | < 10 nM | 10 to 100 nM | COc1ccc(F)cc1C(=O)NCc1ccc(-c2nn(C3CCOCC3)c(N)c2C(N)=O)cc1 [Example 115, 5-amino-3-[4-[[(5-fluoro-2-methoxy-benzoyl)amino]methyl]phenyl]-1-tetrahydropyran-4-yl-pyrazole-4-carboxamide]
1000 to 10000 nM | 10 to 100 nM | 10 to 100 nM | 100 to 1000 nM | COc1ccccc1C(=O)NCc1ccc(-c2nn(CC(=O)C(C)(C)C)c(N)c2C(N)=O)cc1 [Example 10, 5-Amino-1-(3,3-dimethyl-2-oxo-butyl)-3-[4-[[(2-methoxybenzoyl)amino]methyl]phenyl]pyrazole-4-carboxamide]
1000 to 10000 nM | < 10 nM | < 10 nM | 100 to 1000 nM | COc1ccccc1C(=O)NCc1ccc(-c2nn(C3CCC(=O)C3)c(N)c2C(N)=O)cc1 (stereo not drawn) [Example 13, 5-Amino-3-[4-[[(2-methoxybenzoyl)amino]methyl]phenyl]-1-(3-oxocyclopentyl)pyrazole-4-carboxamide]
